MIC data for 17 compounds are collected here from ChEMBL document CHEMBL5126592, “Design, synthesis and activity against drug-resistant bacteria evaluation of C-20, C-23 modified 5-O-mycaminosyltylonolide derivatives” (Eur J Med Chem, 2022).

By MIC is commonly meant the smallest concentration in the dilution series that meets the test's criterion for growth inhibition. Higher therefore signals weaker potency.

What all share (format): functional
What all share (conditions): time 16-20 hrs

The test system of one test is Staphylococcus aureus. In words: Antibacterial activity against Staphylococcus aureus ATCC 25923 incubated for 16 to 20 hrs by broth microdilution method. For orientation: Broth dilution looks for growth in wells or tubes with falling amounts of substance.
Another test has as its system Escherichia coli. In words: Antibacterial activity against Escherichia coli ATCC 25922 incubated for 16 to 20 hrs by broth microdilution method.
A further test concerns Cronobacter sakazakii. Kind of test: Antibacterial activity against Cronobacter sakazakii ATCC 29544 incubated for 16 to 20 hrs by broth microdilution method.
A further test concerns Klebsiella pneumoniae. In words: Antibacterial activity against Klebsiella pneumoniae ATCC 13883 incubated for 16 to 20 hrs by broth microdilution method.

In brackets after ≈: the same amount, converted by molar mass.

Turning to `CC[C@H]1OC(=O)C[C@@H](O)[C@H](C)[C@@H](O[C@@H]2O[C@H](C)[C@@H](O)[C@H](N(C)C)[C@H]2O)[C@@H](CCN(Cc2cn(-c3cnc4ccccc4c3)nn2)Cc2ccco2)C[C@@H](C)C(=O)/C=C/C(C)=C/[C@@H]1CN(CC)CC`, the minimum inhibitory concentration (MIC) came out at 1 µg/mL (≈ 1.06 µM) in the test with Staphylococcus aureus, 4 µg/mL (≈ 4.25 µM) in the test on Escherichia coli, 8 µg/mL (≈ 8.49 µM) in the test on Cronobacter sakazakii and 16 µg/mL (≈ 17 µM) against Klebsiella pneumoniae.
For `CC[C@H]1OC(=O)C[C@@H](O)[C@H](C)[C@@H](O[C@@H]2O[C@H](C)[C@@H](O)[C@H](N(C)C)[C@H]2O)[C@@H](CCN(Cc2cn(-c3cnc4ccccc4c3)nn2)Cc2ccco2)C[C@@H](C)C(=O)/C=C/C(C)=C/[C@@H]1CN1CCCCCC1`, in that order: 1 µg/mL (≈ 1.03 µM), 4 µg/mL (≈ 4.13 µM), 8 µg/mL (≈ 8.26 µM) and 4 µg/mL (≈ 4.13 µM).
As for `CC[C@H]1OC(=O)C[C@@H](O)[C@H](C)[C@@H](O[C@@H]2O[C@H](C)[C@@H](O)[C@H](N(C)C)[C@H]2O)[C@@H](CCN(Cc2ccc(Br)cc2)Cc2cn(-c3cnc4ccccc4c3)nn2)C[C@@H](C)C(=O)/C=C/C(C)=C/[C@@H]1CO`, the minimum inhibitory concentration (MIC) in the test on Staphylococcus aureus is 0.125 µg/mL (≈ 0.128 µM); against Escherichia coli it was 8 µg/mL (≈ 8.2 µM); against Cronobacter sakazakii, 32 µg/mL (≈ 32.8 µM); with Klebsiella pneumoniae it was 32 µg/mL (≈ 32.8 µM).
Take `CC[C@H]1OC(=O)C[C@@H](O)[C@H](C)[C@@H](O[C@@H]2O[C@H](C)[C@@H](O)[C@H](N(C)C)[C@H]2O)[C@@H](CCN(Cc2ccc(N(C)C)cc2)Cc2cn(-c3cnc4ccccc4c3)nn2)C[C@@H](C)C(=O)/C=C/C(C)=C/[C@@H]1CN(CC)CC`: the MIC with Staphylococcus aureus stood at 0.5 µg/mL (≈ 0.502 µM); in the test with Escherichia coli, 4 µg/mL (≈ 4.02 µM); against Cronobacter sakazakii, 16 µg/mL (≈ 16.1 µM); against Klebsiella pneumoniae, 8 µg/mL (≈ 8.04 µM).
Take `CC[C@H]1OC(=O)C[C@@H](O)[C@H](C)[C@@H](O[C@@H]2O[C@H](C)[C@@H](O)[C@H](N(C)C)[C@H]2O)[C@@H](CCN(C)Cc2cn(-c3cnc4ccccc4c3)nn2)C[C@@H](C)C(=O)/C=C/C(C)=C/[C@@H]1CN(C)C(C)C`: the MIC with Staphylococcus aureus worked out at 0.5 µg/mL (≈ 0.571 µM); in the test with Escherichia coli, 8 µg/mL (≈ 9.13 µM); with Cronobacter sakazakii it was 16 µg/mL (≈ 18.3 µM); with Klebsiella pneumoniae, 8 µg/mL (≈ 9.13 µM).
As for `CC[C@H]1OC(=O)C[C@@H](O)[C@H](C)[C@@H](O[C@@H]2O[C@H](C)[C@@H](O)[C@H](N(C)C)[C@H]2O)[C@@H](CCN(Cc2ccc(C(F)(F)F)cc2)Cc2cn(-c3cnc4ccccc4c3)nn2)C[C@@H](C)C(=O)/C=C/C(C)=C/[C@@H]1CO`, the minimal inhibitory concentration (MIC) against Staphylococcus aureus is 0.25 µg/mL (≈ 0.259 µM); in the test on Escherichia coli it was 8 µg/mL (≈ 8.29 µM); against Cronobacter sakazakii it was 16 µg/mL (≈ 16.6 µM); in the test with Klebsiella pneumoniae, 32 µg/mL (≈ 33.2 µM).
The corresponding values for `CC[C@H]1OC(=O)C[C@@H](O)[C@H](C)[C@@H](O[C@@H]2O[C@H](C)[C@@H](O)[C@H](N(C)C)[C@H]2O)[C@@H](CCN(Cc2ccc(N(C)C)cc2)Cc2cn(-c3cnc4ccccc4c3)nn2)C[C@@H](C)C(=O)/C=C/C(C)=C/[C@@H]1CN1CCCCCC1` are 1 µg/mL (≈ 0.979 µM), 4 µg/mL (≈ 3.92 µM), 8 µg/mL (≈ 7.83 µM) and 4 µg/mL (≈ 3.92 µM).
Consider `CC[C@H]1OC(=O)C[C@@H](O)[C@H](C)[C@@H](O[C@@H]2O[C@H](C)[C@@H](O)[C@H](N(C)C)[C@H]2O)[C@@H](CCN(Cc2ccc(OC)cc2)Cc2cn(-c3cnc4ccccc4c3)nn2)C[C@@H](C)C(=O)/C=C/C(C)=C/[C@@H]1CI`, for which the MIC against Staphylococcus aureus was 2 µg/mL (≈ 1.93 µM); with Escherichia coli, 16 µg/mL (≈ 15.4 µM); in the test on Cronobacter sakazakii, 32 µg/mL (≈ 30.9 µM); in the test on Klebsiella pneumoniae, 32 µg/mL (≈ 30.9 µM).
For the compound `CC[C@H]1OC(=O)C[C@@H](O)[C@H](C)[C@@H](O[C@@H]2O[C@H](C)[C@@H](O)[C@H](N(C)C)[C@H]2O)[C@@H](CCN(C)Cc2cn(-c3cnc4ccccc4c3)nn2)C[C@@H](C)C(=O)/C=C/C(C)=C/[C@@H]1CN1CCC(O)CC1`, the MIC turned out to be 8 µg/mL (≈ 8.85 µM) against Staphylococcus aureus, 16 µg/mL (≈ 17.7 µM) in the test with Escherichia coli, 32 µg/mL (≈ 35.4 µM) against Cronobacter sakazakii and 16 µg/mL (≈ 17.7 µM) against Klebsiella pneumoniae.
With `CC[C@H]1OC(=O)C[C@@H](O)[C@H](C)[C@@H](O[C@@H]2O[C@H](C)[C@@H](O)[C@H](N(C)C)[C@H]2O)[C@@H](CCN(Cc2cn(-c3cnc4ccccc4c3)nn2)Cc2cccs2)C[C@@H](C)C(=O)/C=C/C(C)=C/[C@@H]1CO`, the MIC came out at 0.125 µg/mL (≈ 0.138 µM) against Staphylococcus aureus, 16 µg/mL (≈ 17.7 µM) with Escherichia coli, 32 µg/mL (≈ 35.4 µM) with Cronobacter sakazakii and 16 µg/mL (≈ 17.7 µM) against Klebsiella pneumoniae.
For the compound `CC[C@H]1OC(=O)C[C@@H](O)[C@H](C)[C@@H](O[C@@H]2O[C@H](C)[C@@H](O)[C@H](N(C)C)[C@H]2O)[C@@H](CCN(Cc2ccc(C(C)C)cc2)Cc2cn(-c3cnc4ccccc4c3)nn2)C[C@@H](C)C(=O)/C=C/C(C)=C/[C@@H]1CO`, the minimum inhibitory concentration (MIC) was determined as 0.5 µg/mL (≈ 0.532 µM) with Staphylococcus aureus, 16 µg/mL (≈ 17 µM) in the test with Escherichia coli, 32 µg/mL (≈ 34.1 µM) against Cronobacter sakazakii and 32 µg/mL (≈ 34.1 µM) against Klebsiella pneumoniae.
Consider `CC[C@H]1OC(=O)C[C@@H](O)[C@H](C)[C@@H](O[C@@H]2O[C@H](C)[C@@H](O)[C@H](N(C)C)[C@H]2O)[C@@H](CCN(Cc2cn(-c3cnc4ccccc4c3)nn2)Cc2nccs2)C[C@@H](C)C(=O)/C=C/C(C)=C/[C@@H]1CO`, for which the MIC against Staphylococcus aureus stood at 0.5 µg/mL (≈ 0.553 µM); against Escherichia coli, 32 µg/mL (≈ 35.4 µM); against Cronobacter sakazakii, 32 µg/mL (≈ 35.4 µM); against Klebsiella pneumoniae, 32 µg/mL (≈ 35.4 µM).
For the compound `CC[C@H]1OC(=O)C[C@@H](O)[C@H](C)[C@@H](O[C@@H]2O[C@H](C)[C@@H](O)[C@H](N(C)C)[C@H]2O)[C@@H](CCN(C)Cc2cn(-c3cnc4ccccc4c3)nn2)C[C@@H](C)C(=O)/C=C/C(C)=C/[C@@H]1CI`, the MIC in the test with Staphylococcus aureus worked out at 2 µg/mL (≈ 2.15 µM); against Escherichia coli, 16 µg/mL (≈ 17.2 µM); against Cronobacter sakazakii it was 32 µg/mL (≈ 34.4 µM); in the test on Klebsiella pneumoniae, 32 µg/mL (≈ 34.4 µM).
Take `CC[C@H]1OC(=O)C[C@@H](O)[C@H](C)[C@@H](O[C@@H]2O[C@H](C)[C@@H](O)[C@H](N(C)C)[C@H]2O)[C@@H](CCN(C)Cc2cn(-c3cnc4ccccc4c3)nn2)C[C@@H](C)C(=O)/C=C/C(C)=C/[C@@H]1CN1CC(C)CC(C)C1` (stereo partly drawn): the MIC against Staphylococcus aureus came to 2 µg/mL (≈ 2.18 µM); with Escherichia coli, 8 µg/mL (≈ 8.73 µM); against Cronobacter sakazakii, 16 µg/mL (≈ 17.5 µM); in the test on Klebsiella pneumoniae, 8 µg/mL (≈ 8.73 µM).
As to `CC[C@H]1OC(=O)C[C@@H](O)[C@H](C)[C@@H](O[C@@H]2O[C@H](C)[C@@H](O)[C@H](N(C)C)[C@H]2O)[C@@H](CCN(Cc2ccc(C(F)(F)F)cc2)Cc2cn(-c3cnc4ccccc4c3)nn2)C[C@@H](C)C(=O)/C=C/C(C)=C/[C@@H]1CN(CC)CC`, the MIC in the test with Staphylococcus aureus was determined as 1 µg/mL (≈ 0.98 µM); in the test on Escherichia coli, 4 µg/mL (≈ 3.92 µM); against Cronobacter sakazakii it was 16 µg/mL (≈ 15.7 µM); in the test with Klebsiella pneumoniae, 8 µg/mL (≈ 7.84 µM).
For `CC[C@H]1OC(=O)C[C@@H](O)[C@H](C)[C@@H](O[C@@H]2O[C@H](C)[C@@H](O)[C@H](N(C)C)[C@H]2O)[C@@H](CCN(Cc2ccc(C(F)(F)F)cc2)Cc2cn(-c3cnc4ccccc4c3)nn2)C[C@@H](C)C(=O)/C=C/C(C)=C/[C@@H]1CI`, in that order: 4 µg/mL (≈ 3.72 µM), 32 µg/mL (≈ 29.8 µM), 32 µg/mL (≈ 29.8 µM) and 32 µg/mL (≈ 29.8 µM).
For `CC[C@H]1OC(=O)C[C@@H](O)[C@H](C)[C@@H](O[C@@H]2O[C@H](C)[C@@H](O)[C@H](N(C)C)[C@H]2O)[C@@H](CCN(Cc2cn(-c3cnc4ccccc4c3)nn2)Cc2ccco2)C[C@@H](C)C(=O)/C=C/C(C)=C/[C@@H]1CN1CCC(O)CC1`, in that order: 4 µg/mL (≈ 4.12 µM), 8 µg/mL (≈ 8.25 µM), 16 µg/mL (≈ 16.5 µM) and 16 µg/mL (≈ 16.5 µM).
